As a reminder, the pIC50 is the negative decadic logarithm of the IC50, by convention in mol/L.

Holding throughout (assay type): biochemical
The target of assay [1] is T1, KRAS G12D (Homo sapiens, UniProt P01116, G12D).
T1 construct: made in house; host or cells: E. coli, e.g. BL21 (DE3)
The assay can be described thus: HTRF KRAS-SOS1 interaction assay, KRAS G12D. The following applies: binned ≤2 μM / >2 μM, read-out: Inhibition of KRAS G12D (IC50). The essentials:
(§1)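 GST-tagged KRAS (WT or mutant) with anti-GST-Eu donor and His-hSOS1 with anti-6His-XL665 acceptor were combined in 5 mM HEPES pH 7.4, 150 mM NaCl, 1 mM DTT, 0.05% BSA, 0.0025% Igepal. After ~10 min, HTRF was read (ex 337, em 620/665 nm); IC50 from 665/620 ratio.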
For orientation: TR-FRET usually uses a lanthanide donor and a delayed reading to cut background.

Assay [2] has as its target T2, KRAS WT (Homo sapiens, UniProt P01116).
T2 construct: made in house; host or cells: E. coli, e.g. BL21 (DE3)
The assay can be described thus: HTRF KRAS-SOS1 interaction assay, wildtype KRAS. The following applies: binned ≤2 μM / >2 μM, read-out: Inhibition of KRAS WT (IC50). The gist of the method: as §1

Assay [3] concerns the target T3, KRAS G12V (Homo sapiens, UniProt P01116, G12V).
T3 construct: made in house; host or cells: E. coli, e.g. BL21 (DE3)
The assay can be described thus: HTRF KRAS-SOS1 interaction assay, KRAS G12V. The following applies: binned ≤2 μM / >2 μM, read-out: Inhibition of KRAS G12V (IC50). The essentials:
as §1

The target of assay [4] is T4, KRAS G12S (Homo sapiens, UniProt P01116, G12S).
T4 construct: made in house; host or cells: E. coli, e.g. BL21 (DE3)
The assay can be described thus: HTRF KRAS-SOS1 interaction assay, KRAS G12S. To be noted: binned ≤2 μM / >2 μM, read-out: Inhibition of KRAS G12S (IC50). The essentials:
as §1

The structures appear in SMILES notation. pIC50: −log10 of the molar value.

T2 sequence (P01116 1-188 isoform P01116-2): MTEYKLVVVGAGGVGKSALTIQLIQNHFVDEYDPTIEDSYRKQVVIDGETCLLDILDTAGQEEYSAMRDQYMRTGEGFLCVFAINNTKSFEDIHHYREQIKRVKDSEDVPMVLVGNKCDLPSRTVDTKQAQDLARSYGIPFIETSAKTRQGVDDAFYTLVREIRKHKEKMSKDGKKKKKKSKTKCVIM
T1 sequence (P01116 1-188 isoform P01116-2 G12D): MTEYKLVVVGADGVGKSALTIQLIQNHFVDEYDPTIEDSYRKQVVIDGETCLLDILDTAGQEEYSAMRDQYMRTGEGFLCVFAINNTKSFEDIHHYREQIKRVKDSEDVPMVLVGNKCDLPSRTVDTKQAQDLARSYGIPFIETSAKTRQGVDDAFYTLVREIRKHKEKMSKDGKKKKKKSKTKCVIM
T3 sequence (P01116 1-188 isoform P01116-2 G12V): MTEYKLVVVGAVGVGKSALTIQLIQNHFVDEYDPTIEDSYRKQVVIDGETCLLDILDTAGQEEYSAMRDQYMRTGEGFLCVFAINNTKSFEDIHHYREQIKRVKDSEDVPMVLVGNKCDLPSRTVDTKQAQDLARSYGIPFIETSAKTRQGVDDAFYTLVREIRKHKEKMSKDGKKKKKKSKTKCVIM
T4 sequence (P01116 1-188 isoform P01116-2 G12S): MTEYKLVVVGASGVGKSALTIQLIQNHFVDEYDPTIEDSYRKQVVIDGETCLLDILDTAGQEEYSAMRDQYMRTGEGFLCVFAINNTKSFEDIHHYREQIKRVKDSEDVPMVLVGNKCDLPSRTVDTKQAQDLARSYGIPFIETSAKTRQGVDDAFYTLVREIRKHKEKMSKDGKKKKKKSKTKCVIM

Consider `C=CC(F)(F)[C@@H](c1cccnc1N)N1CCOc2c(Cl)c(-c3ccc(F)c4sc(N)c(C#N)c34)c(F)c3nc(OC[C@@]45CCCN4C[C@H](F)C5)nc1c23` [Compound 834, 2-amino-4-(4-((R)-1-(2-aminopyridin-3-yl)-2,2-difluorobut-3-en-1-yl)-8-chloro-10-fluoro-2-(((2R,7aS)-2-fluorotetrahydro-1H-pyrrolizin-7a(5H)-yl)methoxy)-5,6-dihydro-4H-[1,4]oxazepino[5,6,7-de]quinazolin-9-yl)-7-fluorobenzo[b]thiophene-3-carbonitrile], for which the pIC50 is under 5.70 in assay [1], at least 5.70 in assay [2], at least 5.70 in assay [3] and at least 5.70 in assay [4].

In the case of `C[C@H](c1cccnc1N)N1CCOc2c(Cl)c(-c3ccc(F)c4sc(N)c(C#N)c34)c(F)c3nc(OC[C@@]45CCCN4CC(=C(F)F)C5)nc1c23` (atropisomer, axis not shown) [Compound 636, 2-amino-4-((R)-4-((R)-1-(2-aminopyridin-3-yl)ethyl)-8-chloro-2-(((S)-2-(difluoromethylene)tetrahydro-1H-pyrrolizin-7a (5H)-yl)methoxy)-10-fluoro-5,6-dihydro-4H-[1,4]oxazepino[5,6,7-de]quinazolin-9-yl)-7-fluorobenzo[b]thiophene-3-carbonitrile], the pIC50 in assay [1], in assay [2], in assay [3] and in assay [4] was at least 5.70 each time.

Take `CO[C@H]1CCN(C)[C@@H]1[C@H](C)Oc1nc2c3c(c(C(F)(F)F)c(-c4ccc(F)c5sc(N)c(C#N)c45)c(F)c3n1)OCCN2[C@H](C)c1cccnc1N` [Compound 665, 2-amino-4-(4-((R)-1-(2-aminopyridin-3-yl)ethyl)-10-fluoro-2-((S)-1-((2R,3S)-3-methoxy-1-methylpyrrolidin-2-yl)ethoxy)-8-(trifluoromethyl)-5,6-dihydro-4H-[1,4]oxazepino[5,6,7-de]quinazolin-9-yl)-7-fluorobenzo[b]thiophene-3-carbonitrile]: the pIC50 in assay [1], in assay [2], in assay [3] and in assay [4] was at least 5.70 throughout.

For the molecule `C[C@@H]1CN(CC2(COc3nc4c5c(c(C(F)(F)F)c(-c6ccc(F)c7sc(N)c(C#N)c67)c(F)c5n3)OCCN4[C@H](C)c3cccnc3N)CC2)CCO1` (single isomer, unassigned) [Compound 812], the negative logarithm of the IC50 (pIC50) in assay [1], in assay [2], in assay [3] and in assay [4] was at least 5.70 each time.

For the molecule `N#Cc1c(N)sc2c(F)ccc(-c3c(C(F)(F)F)c4c5c(nc(OC[C@@]67CCCN6CC(=C(F)F)C7)nc5c3F)N([C@H](CCC(F)(F)F)c3cccnc3N)CCO4)c12` [Compound 666, 2-amino-4-(4-((R)-1-(2-aminopyridin-3-yl)-4,4,4-trifluorobutyl)-2-(((S)-2-(difluoromethylene)tetrahydro-1H-pyrrolizin-7a(5H)-yl)methoxy)-10-fluoro-8-(trifluoromethyl)-5,6-dihydro-4H-[1,4]oxazepino[5,6,7-de]quinazolin-9-yl)-7-fluorobenzo[b]thiophene-3-carbonitrile], the pIC50 in assay [1], in assay [2], in assay [3] and in assay [4] was at least 5.70 each time.

Take `C[C@H](c1cc(F)cnc1N)N1CCOc2c(C(F)(F)F)c(-c3ccc(F)c4sc(N)c(C#N)c34)c(F)c3nc(OC[C@@]45CCCN4C[C@H](F)C5)nc1c23` (single isomer, unassigned) [Compound 682]: the pIC50 in assay [1], in assay [2], in assay [3] and in assay [4] was under 5.70 each time.

For `C[C@H](Oc1nc2c3c(c(C(F)(F)F)c(-c4ccc(F)c5sc(N)c(C#N)c45)c(F)c3n1)OCCN2[C@H](C)c1cccnc1N)[C@@H]1C[C@@H](F)CN1C` [Compound 890, 2-amino-4-(4-((R)-1-(2-aminopyridin-3-yl)ethyl)-10-fluoro-2-((S)-1-((2S,4R)-4-fluoro-1-methylpyrrolidin-2-yl)ethoxy)-8-(trifluoromethyl)-5,6-dihydro-4H-[1,4]oxazepino[5,6,7-de]quinazolin-9-yl)-7-fluorobenzo[b]thiophene-3-carbonitrile], the pIC50 in assay [1], in assay [2], in assay [3] and in assay [4] was at least 5.70 in each case.

Regarding `C[C@H](c1cccnc1N)N1CCOc2c(C(F)(F)F)c(-c3cc(F)c(F)c4sc(N)c(C#N)c34)c(F)c3nc(OC[C@@]45CCCN4C[C@H](F)C5)nc1c23` (single isomer, unassigned) [Compound 853], the negative-log IC50 (pIC50) in assay [1], in assay [2], in assay [3] and in assay [4] was at least 5.70 in each case.

For the molecule `C=CC[C@H](c1cccnc1N)N1C[C@H](C)Oc2nc(-c3cc(N)c(F)c(C)c3C(F)(F)F)c(F)c3nc(OC[C@@]45CCCN4C[C@H](F)C5)nc1c23` (single isomer, unassigned) [Compound 746], the pIC50 in assay [1], in assay [2], in assay [3] and in assay [4] was at least 5.70 each time.

As for `N#Cc1c(N)sc2c(F)ccc(-c3c(Cl)c4c5c(nc(OC[C@@]67CCCN6C[C@H](F)C7)nc5c3F)N([C@H](C/C=C/C(F)(F)F)c3cccnc3N)CCO4)c12` [Compound 733, 2-amino-4-(4-((R,E)-1-(2-aminopyridin-3-yl)-5,5,5-trifluoropent-3-en-1-yl)-8-chloro-10-fluoro-2-(((2R,7aS)-2-fluorotetrahydro-1H-pyrrolizin-7a(5H)-yl)methoxy)-5,6-dihydro-4H-[1,4]oxazepino[5,6,7-de]quinazolin-9-yl)-7-fluorobenzo[b]thiophene-3-carbonitrile], the pIC50 in assay [1], in assay [2], in assay [3] and in assay [4] was at least 5.70 each time.

For `C[C@H](c1cccnc1N)N1CCOc2c(Br)c(-c3ccc(F)c4sc(N)c(C#N)c34)c(F)c3nc(OC[C@@]45CCCN4C[C@H](F)C5)nc1c23` (single isomer, unassigned) [Compound 858], the negative logarithm of the IC50 (pIC50) in assay [1], in assay [2], in assay [3] and in assay [4] was at least 5.70 throughout.

Consider `C[C@H](c1cccnc1N)N1c2nc(OC[C@@]34CCCN3C[C@H](F)C4)nc3c(F)c(-c4ccc(F)c5sc(N)c(C#N)c45)c(Cl)c(c23)OC[C@@H]1C` [Compound 800, 2-amino-4-((5S)-4-((R)-1-(2-aminopyridin-3-yl)ethyl)-8-chloro-10-fluoro-2-(((2R,7aS)-2-fluorotetrahydro-1H-pyrrolizin-7a(5H)-yl)methoxy)-5-methyl-5,6-dihydro-4H-[1,4]oxazepino[5,6,7-de]quinazolin-9-yl)-7-fluorobenzo[b]thiophene-3-carbonitrile], for which the pIC50 in assay [1], in assay [2], in assay [3] and in assay [4] was at least 5.70 each time.

Take `N#Cc1c(N)sc2c(F)ccc(-c3c(C(F)(F)F)c4c5c(nc(OC[C@@]67CCCN6C[C@H](F)C7)nc5c3F)N([C@H](CCn3cccn3)c3cccnc3N)CCO4)c12` [Compound 829, 2-amino-4-(4-((R)-1-(2-aminopyridin-3-yl)-3-(1H-pyrazol-1-yl)propyl)-10-fluoro-2-(((2R,7aS)-2-fluorotetrahydro-1H-pyrrolizin-7a(5H)-yl)methoxy)-8-(trifluoromethyl)-5,6-dihydro-4H-[1,4]oxazepino[5,6,7-de]quinazolin-9-yl)-7-fluorobenzo[b]thiophene-3-carbonitrile]: the negative logarithm of the IC50 (pIC50) in assay [1], in assay [2], in assay [3] and in assay [4] was at least 5.70 each time.

As to `C[C@H](Oc1nc2c3c(c(Cl)c(-c4ccc(F)c5sc(N)c(C#N)c45)c(F)c3n1)OCCN2[C@H](C)c1cccnc1N)[C@@H]1CCCN1C` (mixture of isomers) [Compound 803, 2-amino-4-(4-((R)-1-(2-aminopyridin-3-yl)ethyl)-8-chloro-10-fluoro-2-((S)-1-((S)-1-methylpyrrolidin-2-yl)ethoxy)-5,6-dihydro-4H-[1,4]oxazepino[5,6,7-de]quinazolin-9-yl)-7-fluorobenzo[b]thiophene-3-carbonitrile], the pIC50 in assay [1], in assay [2], in assay [3] and in assay [4] was at least 5.70 throughout.

Regarding `N#Cc1c(N)sc2c(F)ccc(-c3c(C(F)(F)F)c4c5c(nc(OC[C@@]67CCCN6C[C@H](F)C7)nc5c3F)N([C@H](CCC(F)(F)F)c3cc(Cl)cnc3N)CCO4)c12` [Compound 874, 2-amino-4-(4-((R)-1-(2-amino-5-chloropyridin-3-yl)-4,4,4-trifluorobutyl)-10-fluoro-2-(((2R,7aS)-2-fluorotetrahydro-1H-pyrrolizin-7a(5H)-yl)methoxy)-8-(trifluoromethyl)-5,6-dihydro-4H-[1,4]oxazepino[5,6,7-de]quinazolin-9-yl)-7-fluorobenzo[b]thiophene-3-carbonitrile], the negative logarithm of the IC50 (pIC50) in assay [1], in assay [2], in assay [3] and in assay [4] was at least 5.70 throughout.

The values are drawn from patent US12668600B2 (Kumquat Biosciences Inc., priority 2023, dated 2026).
